Results as given in PubChem BioAssay (NCI).
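Briefly, cells in 96-well plates were exposed to five compound concentrations for 48 h, and endpoints were estimated by linear interpolation. Abbreviation: GI50, concentration required for 50% inhibition of growth. The concentration for full growth arrest is given as TGI.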

Legend:
Assay in all cases: NCI tumour cell line growth inhibition, 48 h
IGROV1 ovarian = system: IGROV1 ovarian
SF-268 CNS = system: SF-268 CNS
PC-3 prostate = system: PC-3 prostate
HL-60(TB) leukemia = system: HL-60(TB) leukemia
MALME-3M melanoma = system: MALME-3M melanoma
MOLT-4 leukemia = system: MOLT-4 leukemia
COLO 205 colon = system: COLO 205 colon
HCT-116 colon = system: HCT-116 colon
CCRF-CEM leukemia = system: CCRF-CEM leukemia
SNB-19 CNS = system: SNB-19 CNS

| Compound | GI50 (IGROV1 ovarian) [µM] | TGI (IGROV1 ovarian) [µM] | GI50 (SF-268 CNS) [µM] | TGI (SF-268 CNS) [µM] | GI50 (PC-3 prostate) [µM] | TGI (PC-3 prostate) [µM] | GI50 (HL-60(TB) leukemia) [µM] | TGI (HL-60(TB) leukemia) [µM] | GI50 (MALME-3M melanoma) [µM] | TGI (MALME-3M melanoma) [µM] | GI50 (MOLT-4 leukemia) [µM] | TGI (MOLT-4 leukemia) [µM] | GI50 (COLO 205 colon) [µM] | TGI (COLO 205 colon) [µM] | GI50 (HCT-116 colon) [µM] | TGI (HCT-116 colon) [µM] | GI50 (CCRF-CEM leukemia) [µM] | TGI (CCRF-CEM leukemia) [µM] | GI50 (SNB-19 CNS) [µM] | TGI (SNB-19 CNS) [µM] |
| --- | --- | --- | --- | --- | --- | --- | --- | --- | --- | --- | --- | --- | --- | --- | --- | --- | --- | --- | --- | --- |
| Cc1[nH]c(-c2nc3ccccc3[nH]2)c(C)c1C(=O)NC(C)C1CCCCC1 (stereo not given) | 6.16 | 23.9 | 11.9 | 30.9 | 12 | 28.4 | 3.36 | 13.1 | 5.68 | 22.5 | 4.95 | 28.1 | 18.3 | 58 | 10.1 | 24.2 | 5.49 | 21.4 | 10.6 | 24.8 |
| C/C(=N\N=C(\[Se])N(C)C)c1ccccn1 | – | 10.1 | – | 25.6 | – | 13.9 | – | 0.343 | – | 9.35 | – | 7.8 | – | 2.05 | – | 14.2 | – | 2.1 | – | 15.9 |
| CCCCCCCCCCCCCCCC(=O)OCC1OC(OC)C2NP(=O)(N(CCCl)CCCl)OC1C2O (stereo not given) | – | > 54.9 | – | 14.8 | – | 18.9 | – | 4.48 | – | 34.1 | – | 0.968 | – | 13.5 | – | 11.5 | – | 9.26 | – | 65.6 |
| CCc1cc2ncc(CN3CCN(c4ccc(C(=O)NC)nc4)CC3)cc2[nH]c1=O | 57.4 | > 100 | > 100 | > 100 | 51.7 | > 100 | 32.1 | > 100 | > 100 | > 100 | 46 | > 100 | > 100 | > 100 | 59.6 | > 100 | 97.1 | > 100 | 99.7 | > 100 |
| COc1cc2ncnc(Nc3ccc4c(cnn4Cc4ccccc4)c3)c2cc1OC | 4.83 | > 25 | > 25 | > 25 | > 18.2 | > 25 | 12.5 | > 21 | > 25 | > 25 | 13.5 | > 25 | > 25 | > 25 | > 21.3 | > 25 | > 18.1 | > 25 | > 25 | > 25 |
| COc1ccc(/C=C2\CN(Cc3cn(CCNc4ccnc5cc(Cl)ccc45)nn3)C/C(=C\c3ccc(OC)c(OC)c3)C2=O)cc1OC | 2.67 | 7.09 | 3.36 | 21.5 | 3.57 | > 100 | 2.42 | 9.37 | 2.78 | 6.19 | 3.5 | 40.2 | 1.99 | 3.9 | 1.95 | 3.85 | 2.54 | > 100 | 3.59 | > 100 |
| COc1cc(N2CCN(C(C)C)CC2)ccc1Nc1nc(Nc2cccc(F)c2C(=O)O)c2cc[nH]c2n1 | > 25 | > 25 | > 25 | > 25 | > 25 | > 25 | > 25 | > 25 | > 25 | > 25 | > 25 | > 25 | > 25 | > 25 | > 25 | > 25 | > 25 | > 25 | > 25 | > 25 |
| CCCCNC(=O)c1cc(NCc2cc(O)ccc2O)ccc1O | 26.1 | 62.7 | 10.3 | 23.6 | 10.3 | 27.4 | 2.06 | 6.2 | 11.8 | 27.3 | 4.02 | 44.4 | 17 | 36.9 | 18.8 | 37.5 | 0.873 | 12.8 | 41.4 | > 100 |
| Oc1ccc(CCNCc2cc3c(cc2Br)OCO3)cc1 | – | > 100 | – | > 100 | – | > 100 | – | 84.4 | – | > 100 | – | > 100 | – | 40.8 | – | > 100 | – | > 100 | – | > 100 |
| O=C1C(=O)c2ccccc2C(O)=C1CCCc1ccc(C2CCCCCC2)cc1 | 0.486 | 5.89 | 0.625 | 26.7 | 0.542 | > 42.4 | 0.698 | 11.1 | 0.816 | 22.6 | 0.618 | > 32.1 | 4.9 | 20 | 0.426 | 13.3 | 1.16 | > 100 | 0.803 | > 100 |
